Laboratory results published in patent US12577206B2 (BRISTOL-MYERS SQUIBB COMPANY, priority 2020, dated 2026).

How the values were obtained:
human FPR2 = molecular target: T1, human FPR2 (Homo sapiens, UniProt P25090); assay: FPR2 cyclic adenosine monophosphate (cAMP) assay; assay type: cell-based; details: CHO cells overexpressing human FPR2; forskolin 5 μM; inhibition of cAMP production; HTRF; read-out: hFPR2 cAMP2 EC50
T1 sequence (P25090 1-351): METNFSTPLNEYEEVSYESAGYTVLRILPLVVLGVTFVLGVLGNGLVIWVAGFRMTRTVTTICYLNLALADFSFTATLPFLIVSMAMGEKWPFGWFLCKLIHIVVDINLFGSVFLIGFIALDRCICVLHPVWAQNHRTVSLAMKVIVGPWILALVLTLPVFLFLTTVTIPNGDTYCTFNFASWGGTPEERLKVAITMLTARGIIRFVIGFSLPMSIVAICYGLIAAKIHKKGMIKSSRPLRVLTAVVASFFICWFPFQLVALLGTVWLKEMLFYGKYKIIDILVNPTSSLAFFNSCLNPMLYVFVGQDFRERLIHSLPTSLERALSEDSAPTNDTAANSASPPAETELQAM
Method in brief: (§1)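 Gi-coupled activity is read as suppression of forskolin-stimulated cAMP (10 μM final for FPR1, 5 μM final for FPR2; IBMX 200 μM final) in recombinant CHO cells, 30 min incubation at rt, HTRF detection.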

human FPR1 = molecular target: T2, human FPR1 (Homo sapiens, UniProt P21462); assay: FPR1 cyclic adenosine monophosphate (cAMP) assay; assay type: cell-based; details: CHO cells overexpressing human FPR1; forskolin 10 μM; inhibition of cAMP production; HTRF; read-out: hFPR1 cAMP2 EC50
T2 sequence (P21462 1-350): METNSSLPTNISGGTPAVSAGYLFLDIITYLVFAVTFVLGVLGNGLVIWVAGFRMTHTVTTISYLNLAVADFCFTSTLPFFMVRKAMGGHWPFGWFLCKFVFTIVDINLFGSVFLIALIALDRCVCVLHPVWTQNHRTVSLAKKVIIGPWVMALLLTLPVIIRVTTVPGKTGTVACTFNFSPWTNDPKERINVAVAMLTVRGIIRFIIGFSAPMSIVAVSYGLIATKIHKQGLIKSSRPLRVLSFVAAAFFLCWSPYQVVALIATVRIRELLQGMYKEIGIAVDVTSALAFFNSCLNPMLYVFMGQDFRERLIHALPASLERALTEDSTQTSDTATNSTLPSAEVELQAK
Method in brief: as §1

Row | Compound | EC50 (human FPR2) [µM] | EC50 (human FPR1) [µM]
1 | COc1cc(F)c(-c2c(NC(=O)c3ccc(OC(F)F)cc3)c(=O)n(-c3cc(C#N)ccc3C#N)n2C)c(F)c1 [Example 179, N-[2-(2,5-dicyanophenyl)-5-(2,6-difluoro-4-methoxyphenyl)-1-methyl-3-oxo-2,3-dihydro-1H-pyrazol-4-yl]-4-(difluoromethoxy)benzamide] | 0.023 | 0.3
2 | COc1cc(F)c(-c2c(NC(=O)c3ccc(OC(F)F)cc3)c(=O)n(-c3nccc(C)c3Cl)n2C)c(F)c1 [Example 180, N-[2-(3-chloro-4-methylpyridin-2-yl)-5-(2,6-difluoro-4-methoxyphenyl)-1-methyl-3-oxo-2,3-dihydro-1H-pyrazol-4-yl]-4-(difluoromethoxy)benzamide] | 0.008 | > 10
3 | COc1cc(F)c(-c2c(NC(=O)c3ccc(OC(F)F)cc3)c(=O)n(-c3cccc(OC)c3Cl)n2C)c(F)c1 [Example 181, N-[2-(2-chloro-3-methoxyphenyl)-5-(2,6-difluoro-4-methoxyphenyl)-1-methyl-3-oxo-2,3-dihydro-1H-pyrazol-4-yl]-4-(difluoromethoxy)benzamide] | 0.006 | 0.14
4 | COc1cc(F)c(-c2c(NC(=O)c3ccc(OC(F)F)cc3)c(=O)n(-c3nc(OC)ccc3C#N)n2C)c(F)c1 [Example 185, N-[2-(3-cyano-6-methoxypyridin-2-yl)-5-(2,6-difluoro-4-methoxyphenyl)-1-methyl-3-oxo-2,3-dihydro-1H-pyrazol-4-yl]-4-(difluoromethoxy)benzamide] | 0.005 | > 10
5 | COc1cc(F)c(-c2c(NC(=O)c3ccc(OC(F)F)cc3)c(=O)n(-c3cc(F)ccc3Cl)n2C)c(F)c1 [Example 186, N-[2-(2-chloro-5-fluorophenyl)-5-(2,6-difluoro-4-methoxyphenyl)-1-methyl-3-oxo-2,3-dihydro-1H-pyrazol-4-yl]-4-(difluoromethoxy)benzamide] | 0.01 | > 10
6 | COc1cc(F)c(-c2c(NC(=O)c3ccc(OC(F)F)cc3)c(=O)n(-c3cccc(Cl)c3F)n2C)c(F)c1 [Example 187, N-[2-(3-chloro-2-fluorophenyl)-5-(2,6-difluoro-4-methoxyphenyl)-1-methyl-3-oxo-2,3-dihydro-1H-pyrazol-4-yl]-4-(difluoromethoxy)benzamide] | 0.004 | 2.2
7 | COc1cc(F)c(-c2c(NC(=O)c3ccc(OC(F)F)cc3)c(=O)n(-c3cc(F)ccc3C#N)n2C)c(F)c1 [Example 188, N-[2-(2-cyano-5-fluorophenyl)-5-(2,6-difluoro-4-methoxyphenyl)-1-methyl-3-oxo-2,3-dihydro-1H-pyrazol-4-yl]-4-(difluoromethoxy)benzamide] | 0.014 | > 10
8 | COc1cc(F)c(-c2c(NC(=O)c3ccc(OC(F)F)cc3)c(=O)n(-c3nc(C4CCC4)ccc3C#N)n2C)c(F)c1 [Example 191, N-(2-(3-cyano-6-cyclobutylpyridin-2-yl)-5-(2,6-difluoro-4-methoxyphenyl)-1-methyl-3-oxo-2,3-dihydro-1H-pyrazol-4-yl)-4-(difluoromethoxy)benzamide] | 0.002 | 4.8
9 | COc1cc(F)c(-c2c(NC(=O)c3ccc(OC(F)F)cc3)c(=O)n(-c3nc(CO)ccc3C(F)(F)F)n2C)c(F)c1 [Example 195, N-[5-(2,6-difluoro-4-methoxyphenyl)-2-[6-(hydroxymethyl)-3-(trifluoromethyl)pyridin-2-yl]-1-methyl-3-oxo-2,3-dihydro-1H-pyrazol-4-yl]-4-(difluoromethoxy)benzamide] | 0.014 | > 10
10 | COc1cc(F)c(-c2c(NC(=O)c3ccc(OC(F)F)cc3)c(=O)n(-c3ncccc3Cl)n2C)c(F)c1 [Example 197, N-[2-(3-chloropyridin-2-yl)-5-(2,6-difluoro-4-methoxyphenyl)-1-methyl-3-oxo-2,3-dihydro-1H-pyrazol-4-yl]-4-(difluoromethoxy)benzamide] | 0.016 | > 10
11 | COc1cc(F)c(-c2c(NC(=O)c3ccc(OC(F)F)cc3)c(=O)n(-c3nccc(C4CCCCC4)c3C#N)n2C)c(F)c1 [Example 199, N-[2-(3-cyano-4-cyclohexylpyridin-2-yl)-5-(2,6-difluoro-4-methoxyphenyl)-1methyl-3-oxo-2,3-dihydro-1H-pyrazol-4-yl]-4-(difluoromethoxy)benzamide] | 0.005 | 0.9

The next lines start with the values.

Row | EC50 (human FPR2) [µM] | EC50 (human FPR1) [µM] | Compound
12 | 0.006 | > 10 | COc1cc(F)c(-c2c(NC(=O)c3ccc(OC(F)F)cc3)c(=O)n(-c3cccc(F)c3C#N)n2C)c(F)c1 [Example 178, N-[2-(2-cyano-3-fluorophenyl)-5-(2,6-difluoro-4-methoxyphenyl)-1-methyl-3-oxo-2,3-dihydro-1H-pyrazol-4-yl]-4-(difluoromethoxy)benzamide]
13 | 0.012 | > 10 | COc1cc(F)c(-c2c(NC(=O)c3ccc(OC(F)F)cc3)c(=O)n(-c3nc(OC)ccc3Cl)n2C)c(F)c1 [Example 182, N-[2-(3-chloro-6-methoxypyridin-2-yl)-5-(2,6-difluoro-4-methoxyphenyl)-1-methyl-3-oxo-2,3-dihydro-1H-pyrazol-4-yl]-4-(difluoromethoxy)benzamide]
14 | 0.011 | 3.9 | COc1cc(F)c(-c2c(NC(=O)c3ccc(OC(F)F)cc3)c(=O)n(-c3cc(OC)ccc3C#N)n2C)c(F)c1 [Example 183, N-[2-(2-cyano-5-methoxyphenyl)-5-(2,6-difluoro-4-methoxyphenyl)-1-methyl-3-oxo-2,3-dihydro-1H-pyrazol-4-yl]-4-(difluoromethoxy)benzamide]
15 | 0.008 | > 10 | COc1cc(F)c(-c2c(NC(=O)c3ccc(OC(F)F)cc3)c(=O)n(-c3cccc(OC)c3C#N)n2C)c(F)c1 [Example 184, N-[2-(2-cyano-3-methoxyphenyl)-5-(2,6-difluoro-4-methoxyphenyl)-1-methyl-3-oxo-2,3-dihydro-1H-pyrazol-4-yl]-4-(difluoromethoxy)benzamide]
16 | 0.005 | 0.19 | COc1cc(F)c(-c2c(NC(=O)c3ccc(OC(F)F)cc3)c(=O)n(-c3cccc(C#N)c3F)n2C)c(F)c1 [Example 189, N-[2-(3-cyano-2-fluorophenyl)-5-(2,6-difluoro-4-methoxyphenyl)-1-methyl-3-oxo-2,3-dihydro-1H-pyrazol-4-yl]-4-(difluoromethoxy)benzamide]
17 | 0.003 | > 10 | COc1cc(F)c(-c2c(NC(=O)c3ccc(OC(F)F)cc3)c(=O)n(-c3nc(C(C)(C)C)ccc3C#N)n2C)c(F)c1 [Example 190, N-[2-(6-tert-butyl-3-cyanopyridin-2-yl)-5-(2,6-difluoro-4-methoxyphenyl)-1-methyl-3-oxo-2,3-dihydro-1H-pyrazol-4-yl]-4-(difluoromethoxy)benzamide]
18 | 0.004 | > 10 | CCOC1(c2ccc(C#N)c(-n3c(=O)c(NC(=O)c4ccc(OC(F)F)cc4)c(-c4c(F)cc(OC)cc4F)n3C)n2)CC1 [Example 192, N-{2-[3-cyano-6-(1-ethoxycyclopropyl)pyridin-2-yl]-5-(2,6-difluoro-4-methoxyphenyl)-1-methyl-3-oxo-2,3-dihydro-1H-pyrazol-4-yl}-4-(difluoromethoxy)benzamide]
19 | 0.005 | > 10 | COc1cc(F)c(-c2c(NC(=O)c3ccc(OC(F)F)cc3)c(=O)n(-c3nc(C(C)(C)F)ccc3C#N)n2C)c(F)c1 [Example 194, N-{2-[3-cyano-6-(2-fluoropropan-2-yl)pyridin-2-yl]-5-(2,6-difluoro-4-methoxyphenyl)-1-methyl-3-oxo-2,3-dihydro-1H-pyrazol-4-yl}-4-(difluoromethoxy)benzamide]
20 | 0.009 | > 10 | COCc1ccc(C(F)(F)F)c(-n2c(=O)c(NC(=O)c3ccc(OC(F)F)cc3)c(-c3c(F)cc(OC)cc3F)n2C)n1 [Example 196, N-[5-(2,6-difluoro-4-methoxyphenyl)-2-[6-(methoxymethyl)-3-(trifluoromethyl)pyridin-2-yl]-1-methyl-3-oxo-2,3-dihydro-1H-pyrazol-4-yl]-4-(difluoromethoxy)benzamide]
21 | 0.013 | > 10 | COc1cc(F)c(-c2c(NC(=O)c3ccc(OC(F)F)cc3)c(=O)n(-c3cc(OC)ccc3Cl)n2C)c(F)c1 [Example 198, N-[2-(2-chloro-5-methoxyphenyl)-5-(2,6-difluoro-4-methoxyphenyl)-1-methyl-3-oxo-2,3-dihydro-1H-pyrazol-4-yl]-4-(difluoromethoxy)benzamide]
